pIC50: −log10 of the molar value. Activity calls are given as the source filed them. The calls are words filed in the database; no cut-off is given here.
Tests used:
[1] = target: T1, Vascular endothelial growth factor receptor 1 (Homo sapiens, UniProt P17948); experiment: Inhibition of human FLT1/VEGFR1 assessed as residual kinase activity at 1 uM relative to control
[2] = target: Misshapen-like kinase 1 (Homo sapiens, UniProt Q8N4C8); experiment: Inhibition of human MINK
[3] = tested on: MDA-MB-436; experiment: Induction of apoptosis in human MDA-MB-436 cells assessed as upregulation of Bax expression up to 10 uM incubated for 24 hrs by Western blotting analysis; type: functional, cell-based; details: dose microM <=10, time 24.0 hrs
[4] = target: Vascular endothelial growth factor receptor 3 (Mus musculus) (UniProt P35917); experiment: In vivo inhibition of VEGFR3 phosphorylation in BALB/c mouse xenografted with MDA-MB-231 cells assessed as decrease in STAT5 phosphorylation at 25 mg/kg, po by immunohistochemistry analysis; type: functional, organism-based
[5] = tested on: MDA-MB-231; experiment: Anticancer activity against human MDA-MB-231 cells assessed as cell viability incubated for 48 hrs by MTT assay; details: MDA-MB-231, 48 h
[6] = tested on: HDLEC; experiment: Antimigratory activity against VEGF-C-induced human dermal lymphatic endothelial cells assessed as cell migration at 100 nM incubated for 12 hrs by inverted microscopy based by transwell assay; type: functional, tissue-based
[7] = target: T2, Vascular endothelial growth factor receptor 3 (Homo sapiens, UniProt P35916); experiment: Inhibition of VEGFR3 phosphorylation in human dermal lymphatic endothelial cells incubated for 24 hrs by Western blot analysis; type: tissue-based; details: HDLEC
[8] = target: Tyrosine-protein kinase BTK (Homo sapiens, UniProt Q06187); experiment: Inhibition of human BTK assessed as residual kinase activity at 1 uM relative to control
[9] = target: Vascular endothelial growth factor receptor 2 (Homo sapiens, UniProt P35968); experiment: Inhibition of human KDR/VEGFR2 assessed as residual kinase activity at 1 uM relative to control
[10] = tested on: Mus musculus; experiment: Decrease in LYVE-1 level in BALB/c mouse xenografted with MDA-MB-231 cells in tumor tissue at 25 mg/kg, po by immunohistochemistry analysis; type: functional, organism-based
[11] = tested on: MDA-MB-436; experiment: Antimigratory activity against human MDA-MB-436 cells assessed as reduction in cell migration incubated for 12 hrs by transwell assay; type: functional, cell-based
[12] = tested on: MDA-MB-231; experiment: Induction of apoptosis in human MDA-MB-231 cells assessed as apoptotic cells at 2.5 to 5 uM incubated for 48 hrs by flow cytometry (reference value: 7.2%); type: functional; details: dose 2.5-5 µM
[13] = tested on: Mus musculus; experiment: Downregulation of MMP2 protein expression human MDA-MB-231 cells injected into vein of BALB/c mouse lung metastatic model at 50 mg/kg, po once a day measured on day 21 by […]; type: functional, organism-based
[14] = tested on: MDA-MB-436; experiment: Upregulation of E-cadherin protein expression in human MDA-MB-436 cells up to 10 uM incubated for 24 hrs by Western blot analysis; type: functional, cell-based; details: dose microM <=10, time 24.0 hrs
[15] = target: T2, Vascular endothelial growth factor receptor 3; experiment: Inhibition of VEGFR3 in human MDA-MB-231 cells assessed as inhibition of ERK1/2 phosphorylation at 2.5 uM incubated for 24 hrs by Western blot analysis; type: cell-based
[16] = tested on: MDA-MB-231; experiment: Upregulation of E-cadherin protein expression in human MDA-MB-231 cells up to 10 uM incubated for 24 hrs by Western blot analysis; type: functional, cell-based; details: dose microM <=10, time 24.0 hrs
[17] = AUC (0 to t) in Sprague-Dawley rat at 1 mg/kg, iv by LC-MS analysis; type: ADME, organism-based; set-up: dose 1 mg/kg; details: in vivo
[18] = Toxicity in BALB/c mouse xenografted with MDA-MB-231 cells assessed as effect on body weight at 50 mg/kg, po; type: organism-based; details: in vivo
[19] = target: T1, Vascular endothelial growth factor receptor 1; experiment: Inhibition of human FLT1/VEGFR1
[20] = tested on: MDA-MB-436; experiment: Induction of apoptosis in human MDA-MB-436 cells assessed as upregulation of caspase 3 up to 10 uM incubated for 24 hrs by Western blotting analysis; type: functional, cell-based; details: dose microM <=10, time 24.0 hrs
[21] = target: T2, Vascular endothelial growth factor receptor 3; experiment: Inhibition of VEGFR3 in human dermal lymphatic endothelial cells assessed as inhibition of ERK1/2 phosphorylation incubated for 24 hrs by Western blot analysis; details: HDLEC
[22] = tested on: HDLEC; experiment: Downregulation of MMP2 protein expression in human dermal lymphatic endothelial cells incubated for 24 hrs by Western blot analysis; type: functional, tissue-based
[23] = Half life in Sprague-Dawley rat at 10 mg/kg, po by LC-MS analysis; type: ADME, organism-based; details: in vivo
[24] = AUC (0 to infinity) in Sprague-Dawley rat at 10 mg/kg, po by LC-MS analysis; type: ADME, organism-based; set-up: route oral, time infinity, dose 10 mg/kg; details: in vivo
[25] = tested on: Mus musculus; experiment: Decrease in Ki-67 level in BALB/c mouse xenografted with MDA-MB-231 cells in tumor tissue at 25 mg/kg, po by immunohistochemistry analysis; type: functional, organism-based
[26] = species on record: Danio rerio; experiment: Antiangiogenesis activity against transgenic zebrafish with GFP-labeled vascular endothelial cells assessed as inhibition of subintestinal vessels at 10 uM incubated for 24 hrs by fluorescence microscopy; type: functional, organism-based
[27] = target: Maternal embryonic leucine zipper kinase (Homo sapiens, UniProt Q14680); experiment: Inhibition of human MELK
[28] = tested on: MDA-MB-231; experiment: Induction of apoptosis in human MDA-MB-231 cells assessed as upregulation of caspase 3 up to 10 uM incubated for 24 hrs by Western blotting analysis; type: functional, cell-based; details: dose microM <=10, time 24.0 hrs
[29] = Toxicity in BALB/c mouse xenografted with MDA-MB-231 cells assessed as AST level in blood at 300 mg/kg, po; type: organism-based; details: in vivo
[30] = tested on: HDLEC; experiment: Anti-lymphangiogenic activity against human dermal lymphatic endothelial cells assessed as inhibition of VEGF-C-mediated tube formation at 100 nM incubated for 12 hrs by inverted microscopy; type: functional, tissue-based
[31] = Toxicity in BALB/c mouse xenografted with MDA-MB-231 cells assessed as change in kidney at 300 mg/kg, po by hematoxylin and eosin staining based analysis; type: organism-based; details: in vivo
[32] = tested on: MDA-MB-231; experiment: Downregulation of MMP2 protein expression in human MDA-MB-231 cells up to 10 uM incubated for 24 hrs by Western blot analysis; type: functional, cell-based; details: dose microM <=10, time 24.0 hrs
[33] = tested on: MDA-MB-436; experiment: Antimigratory activity against human MDA-MB-436 cells assessed as suppression of migration measured after 24 hrs by Wound healing assay; type: functional, cell-based
[34] = tested on: MDA-MB-231; experiment: Induction of apoptosis in human MDA-MB-231 cells assessed as accumulation at G1 phase incubated for 48 hrs by flow cytometry; type: functional, cell-based
[35] = tested on: MDA-MB-436; experiment: Induction of apoptosis in human MDA-MB-436 cells assessed as increase in apoptotic cells incubated for 24 hrs by Hoechst 33258 staining under a fluorescence microscopy; type: functional, cell-based
[36] = tested on: MDA-MB-231; experiment: Antimetastatic activity against human MDA-MB-231 cells injected into vein of BALB/c mouse lung metastatic model assessed as less lung metastatic nodules at 50 mg/kg, po once a day measured on day 21; type: functional, organism-based; details: time 21.0 day
[37] = tested on: Mus musculus; experiment: Upregulation of E-cadherin protein expression human MDA-MB-231 cells injected into vein of BALB/c mouse lung metastatic model at 50 mg/kg, po once a day measured on day 21 by […]; type: functional, organism-based
[38] = Toxicity in BALB/c mouse xenografted with MDA-MB-231 cells assessed as change in heart at 300 mg/kg, po by hematoxylin and eosin staining based analysis; type: organism-based; details: in vivo
[39] = tested on: Mus musculus; experiment: Decrease in p-VEGFR3 level in BALB/c mouse xenografted with MDA-MB-231 cells in tumor tissue at 25 mg/kg, po by immunohistochemistry analysis; type: functional, organism-based

T2 sequence (P35916 whole entry): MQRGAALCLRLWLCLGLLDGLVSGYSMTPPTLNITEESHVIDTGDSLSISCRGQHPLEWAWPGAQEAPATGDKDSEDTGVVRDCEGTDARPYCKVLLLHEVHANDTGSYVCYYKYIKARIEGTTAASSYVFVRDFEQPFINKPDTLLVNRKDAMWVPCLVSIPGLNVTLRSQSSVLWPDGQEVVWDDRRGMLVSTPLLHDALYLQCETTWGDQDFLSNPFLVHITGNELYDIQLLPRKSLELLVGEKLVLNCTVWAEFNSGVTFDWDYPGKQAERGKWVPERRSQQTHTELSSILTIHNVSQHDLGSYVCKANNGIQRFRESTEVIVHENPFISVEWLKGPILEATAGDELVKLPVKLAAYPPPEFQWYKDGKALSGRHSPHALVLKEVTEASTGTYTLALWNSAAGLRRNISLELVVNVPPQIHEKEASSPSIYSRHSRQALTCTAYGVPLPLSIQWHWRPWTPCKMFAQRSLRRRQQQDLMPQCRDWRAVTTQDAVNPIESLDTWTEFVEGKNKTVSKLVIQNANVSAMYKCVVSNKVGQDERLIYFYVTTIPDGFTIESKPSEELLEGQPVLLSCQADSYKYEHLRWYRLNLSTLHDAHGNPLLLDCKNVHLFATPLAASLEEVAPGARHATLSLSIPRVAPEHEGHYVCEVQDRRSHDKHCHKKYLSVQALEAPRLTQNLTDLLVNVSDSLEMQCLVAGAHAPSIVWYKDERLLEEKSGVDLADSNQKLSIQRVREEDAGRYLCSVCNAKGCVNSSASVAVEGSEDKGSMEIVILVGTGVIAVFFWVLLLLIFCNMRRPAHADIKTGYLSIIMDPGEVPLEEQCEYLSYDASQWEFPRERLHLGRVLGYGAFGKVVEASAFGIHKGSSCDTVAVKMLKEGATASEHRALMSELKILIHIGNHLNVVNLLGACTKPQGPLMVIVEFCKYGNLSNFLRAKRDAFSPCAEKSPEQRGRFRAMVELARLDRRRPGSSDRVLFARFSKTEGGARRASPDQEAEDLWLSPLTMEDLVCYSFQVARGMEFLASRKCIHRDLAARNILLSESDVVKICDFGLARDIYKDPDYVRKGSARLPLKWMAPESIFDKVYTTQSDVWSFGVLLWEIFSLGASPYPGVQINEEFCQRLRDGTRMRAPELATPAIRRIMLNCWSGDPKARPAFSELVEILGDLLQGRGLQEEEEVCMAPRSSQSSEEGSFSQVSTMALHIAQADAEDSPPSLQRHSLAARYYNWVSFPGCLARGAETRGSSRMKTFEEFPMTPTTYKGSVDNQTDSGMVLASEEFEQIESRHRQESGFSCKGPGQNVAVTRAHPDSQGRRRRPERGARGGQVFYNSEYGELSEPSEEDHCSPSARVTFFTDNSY
T1 sequence (P17948 whole entry): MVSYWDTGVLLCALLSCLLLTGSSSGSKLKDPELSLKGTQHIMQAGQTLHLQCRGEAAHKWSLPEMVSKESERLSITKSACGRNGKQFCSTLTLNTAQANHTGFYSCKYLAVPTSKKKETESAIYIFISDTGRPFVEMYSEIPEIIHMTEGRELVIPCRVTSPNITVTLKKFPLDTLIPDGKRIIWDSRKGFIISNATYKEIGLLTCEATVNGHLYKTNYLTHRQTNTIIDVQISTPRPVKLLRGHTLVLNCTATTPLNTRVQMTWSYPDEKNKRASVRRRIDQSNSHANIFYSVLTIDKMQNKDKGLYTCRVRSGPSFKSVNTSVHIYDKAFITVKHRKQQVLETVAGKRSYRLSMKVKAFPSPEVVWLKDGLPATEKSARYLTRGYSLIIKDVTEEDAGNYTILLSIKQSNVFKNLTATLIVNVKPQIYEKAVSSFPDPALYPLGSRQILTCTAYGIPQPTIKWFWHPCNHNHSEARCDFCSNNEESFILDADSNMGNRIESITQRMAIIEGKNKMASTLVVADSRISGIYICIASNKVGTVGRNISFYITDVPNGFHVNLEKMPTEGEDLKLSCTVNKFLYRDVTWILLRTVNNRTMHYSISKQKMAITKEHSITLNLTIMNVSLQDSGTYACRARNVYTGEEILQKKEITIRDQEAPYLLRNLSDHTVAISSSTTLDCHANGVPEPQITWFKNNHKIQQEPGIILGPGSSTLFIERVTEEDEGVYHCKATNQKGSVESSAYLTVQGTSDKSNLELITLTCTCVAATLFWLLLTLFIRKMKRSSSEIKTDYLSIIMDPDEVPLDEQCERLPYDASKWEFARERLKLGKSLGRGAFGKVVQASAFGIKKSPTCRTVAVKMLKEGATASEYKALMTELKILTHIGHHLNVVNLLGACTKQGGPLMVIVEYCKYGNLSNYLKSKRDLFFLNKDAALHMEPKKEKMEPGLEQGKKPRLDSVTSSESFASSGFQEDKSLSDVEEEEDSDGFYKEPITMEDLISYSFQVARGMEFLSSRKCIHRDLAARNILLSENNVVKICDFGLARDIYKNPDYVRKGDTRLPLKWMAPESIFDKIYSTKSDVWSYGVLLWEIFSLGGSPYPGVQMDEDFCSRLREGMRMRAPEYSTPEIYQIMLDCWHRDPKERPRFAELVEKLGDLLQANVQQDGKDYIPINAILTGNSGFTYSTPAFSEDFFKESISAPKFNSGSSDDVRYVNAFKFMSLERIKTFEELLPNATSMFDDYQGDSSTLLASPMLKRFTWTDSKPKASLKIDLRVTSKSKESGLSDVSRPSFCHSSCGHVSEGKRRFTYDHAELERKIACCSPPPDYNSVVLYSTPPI
Misshapen-like kinase 1, sequence (Q8N4C8 whole entry): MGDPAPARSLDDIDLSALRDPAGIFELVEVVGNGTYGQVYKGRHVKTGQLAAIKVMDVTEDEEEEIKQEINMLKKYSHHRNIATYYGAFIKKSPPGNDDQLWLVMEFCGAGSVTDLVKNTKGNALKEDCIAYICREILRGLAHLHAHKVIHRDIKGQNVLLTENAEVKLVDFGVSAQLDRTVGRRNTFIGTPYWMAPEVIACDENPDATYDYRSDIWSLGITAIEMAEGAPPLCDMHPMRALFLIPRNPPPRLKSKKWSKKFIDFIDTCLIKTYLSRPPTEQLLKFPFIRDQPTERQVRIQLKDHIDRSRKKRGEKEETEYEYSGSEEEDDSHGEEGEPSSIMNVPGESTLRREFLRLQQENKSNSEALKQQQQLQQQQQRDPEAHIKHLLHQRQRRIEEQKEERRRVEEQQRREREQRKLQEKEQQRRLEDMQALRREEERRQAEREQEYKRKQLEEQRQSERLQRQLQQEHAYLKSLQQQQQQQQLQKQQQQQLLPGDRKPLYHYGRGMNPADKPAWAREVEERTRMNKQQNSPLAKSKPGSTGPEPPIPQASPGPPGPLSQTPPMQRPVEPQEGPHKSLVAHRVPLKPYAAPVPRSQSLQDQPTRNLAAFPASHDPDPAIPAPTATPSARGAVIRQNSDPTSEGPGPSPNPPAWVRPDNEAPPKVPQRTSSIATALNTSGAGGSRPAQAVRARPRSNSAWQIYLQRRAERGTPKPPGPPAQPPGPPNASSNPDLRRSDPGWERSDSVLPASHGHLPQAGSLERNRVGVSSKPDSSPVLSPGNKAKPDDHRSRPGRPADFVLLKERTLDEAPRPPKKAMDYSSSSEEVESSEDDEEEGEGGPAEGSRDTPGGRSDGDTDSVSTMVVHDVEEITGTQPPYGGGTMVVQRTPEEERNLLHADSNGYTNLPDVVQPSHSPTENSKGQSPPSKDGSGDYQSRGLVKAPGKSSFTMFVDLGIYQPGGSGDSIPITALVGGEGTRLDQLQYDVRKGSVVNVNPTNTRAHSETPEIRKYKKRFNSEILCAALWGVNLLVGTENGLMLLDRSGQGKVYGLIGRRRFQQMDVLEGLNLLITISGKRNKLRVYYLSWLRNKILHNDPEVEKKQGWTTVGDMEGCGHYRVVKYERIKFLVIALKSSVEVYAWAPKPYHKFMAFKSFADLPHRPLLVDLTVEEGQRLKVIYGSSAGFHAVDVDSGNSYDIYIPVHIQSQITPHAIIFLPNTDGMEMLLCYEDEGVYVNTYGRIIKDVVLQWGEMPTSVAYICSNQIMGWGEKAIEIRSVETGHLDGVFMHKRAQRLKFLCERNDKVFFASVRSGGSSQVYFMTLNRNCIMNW
Maternal embryonic leucine zipper kinase, sequence (Q14680 whole entry): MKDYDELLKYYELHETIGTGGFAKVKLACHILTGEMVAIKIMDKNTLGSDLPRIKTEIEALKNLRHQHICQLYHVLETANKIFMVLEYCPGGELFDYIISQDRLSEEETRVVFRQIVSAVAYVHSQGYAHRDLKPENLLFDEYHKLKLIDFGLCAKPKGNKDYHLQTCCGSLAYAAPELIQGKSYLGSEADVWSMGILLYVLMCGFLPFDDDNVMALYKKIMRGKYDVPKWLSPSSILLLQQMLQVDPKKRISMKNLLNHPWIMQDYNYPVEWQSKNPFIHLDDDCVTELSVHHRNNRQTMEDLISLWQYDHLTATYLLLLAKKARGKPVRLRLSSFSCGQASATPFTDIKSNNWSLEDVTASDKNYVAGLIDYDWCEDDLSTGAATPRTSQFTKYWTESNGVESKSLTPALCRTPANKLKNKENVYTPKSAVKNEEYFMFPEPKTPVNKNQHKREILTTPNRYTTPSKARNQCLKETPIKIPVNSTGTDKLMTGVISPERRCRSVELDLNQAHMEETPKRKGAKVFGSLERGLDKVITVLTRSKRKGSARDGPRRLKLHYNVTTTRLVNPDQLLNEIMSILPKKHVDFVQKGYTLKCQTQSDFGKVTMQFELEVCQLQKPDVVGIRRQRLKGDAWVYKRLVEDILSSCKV

For CN1CCN(c2ccc(-c3cc4c(N5CCN(C(=O)Nc6ccc(Cl)c(C(F)(F)F)c6)CC5)ncnc4s3)cc2)CC1, the Activity [1] was 97%, the pIC50 [2] was 6.47 and the Activity [3] was “Active”. For the same molecule, the Activity [4] was “Active”, the pIC50 [5] was 5.65 and the Activity [6] was “Active”. The inhibition [7] was “Dose-Dependent Effect”, the Activity [8] was 19% and the Activity [9] was 85%. For the same molecule, the Activity [10] was “Active”, the Activity [11] was “Active” and the Activity [12] was 19.7%. For the same molecule, the Activity [13] was “Active”, the Activity [14] was “Active” and the inhibition [15] was “Active”. The Activity [16] was “Active”, the AUC(0-t) [17] was 2570 ng·h/mL and the Activity [18] was “Non-Toxic”. For the same molecule, the pIC50 [19] was less than 5.00, the Activity [20] was “Active” and the inhibition [21] was “Dose-Dependent Effect”. The Activity [22] was “Active”, the half-life [23] was 16 h and the AUC(0-inf) [24] was 12300 ng·h/mL. For the same molecule, the Activity [25] was “Active”, the inhibition [26] was “Active” and the pIC50 [27] was 6.16. The Activity [28] was “Active”, the Activity [29] was “Non-Toxic” and the Activity [30] was “Active”. For the same molecule, the Activity [31] was “Non-Toxic”, the Activity [32] was “Active” and the Activity [33] was “Active”. For the same molecule, the Activity [34] was “Dose-Dependent Effect”, the Activity [35] was “Dose-Dependent Effect” and the Activity [36] was “Active”. For the same molecule, the Activity [37] was “Active”, the Activity [38] was “Non-Toxic” and the Activity [39] was “Active”.

From ChEMBL document CHEMBL4837240 (J Med Chem, 2021)
